Experimental data reported in US20160220720A1, “COMPOSITIONS COMPRISING POLYAMINE POLYMER COMPATIBLE PERFUME MATERIALS” (priority 2013, published 2016).
Where “and” joins values, the source holds several entries; their conditions need not be identical. Identical values can stand only once.

Tests used:
[1] = GC-MS head space ratio of perfume raw materials with versus without polyamine polymer (R); type: physicochemical; conditions: for GC-MS head space peak area ratio normalized to Control: aqueous fabric refresher formulation pH 6.8, 0.05% Lupamin 1595, head space after 1 hr room temperature and 20 minutes at 40° C., Control without polyamine polymer = 1.000; for Obs. Lupamin Ratio: head space with polyamine polymer / head space nil polyamine polymer
Description: R=head space of aqueous composition containing polyamine/head space of aqueous composition nil polyamine polymer
Polyamine polymer perfume interactions were studied in aqueous fabric refresher formulations. Aqueous formulations containing a perfume mixture and a polyamine polymer was prepared according to Table 2 and studied against a control fabric refresher formulation without a polyamine polymer. Studies were conducted using 500 ppm (0.05%) polyamine polymer and perfume mixtures at 2 levels (500 ppm (0.05%) and 10,000 ppm […]).
GC-MS was used to study polymer perfume aldehyde interactions using the formulations prepared in Example 1. For the GC-MS analysis, 2 ml of each sample was transferred into 20 ml headspace vial, equilibrated at room temperature for 1 hr, and incubated at 40° C. for 20 minutes. Then, 1 ml of head space was injected into GC-MS using 1 to 10 split, and perfume raw material intensities were measured. Perfume raw material peak area ratios were then calculated using the control sample without a polyamine polymer.
PRMs that react with polyamine polymer have a headspace concentration less than 1.00 with respect to the normalized Control.

[2] = ambient temperature; cited from earlier work

| Compound | GC-MS head space peak area ratio normalized to Control [1] | Obs. Lupamin Ratio [1] | also measured |
| --- | --- | --- | --- |
| CC(=O)c1ccc(C(C)=O)cc1 [1,4-diacety lbenzene] | 0.913 | – | – |
| CC(=O)c1cccs1 [2-acetyl thiophene] | 0.794 | – | – |
| CCCC(C)C=O (stereo not drawn) [2-methyl petanal] | 0.864 | – | – |
| CC(C)=CCCC(C)CCCC(C)C=O (stereo not drawn) [Adoxal] | 0.751 | 0.79 | – |
| O=Cc1ccccc1 [Benzaldehyde] | 1.030 | – | – |
| CC(=O)/C=C/C1=C(C)CCCC1(C)C [Beta Ionone] | 1.222 | – | – |
| C=C(C)C1CC=C(C)C(=O)C1 (stereo not drawn) [Carvone] | 1.103 | – | – |
| CC(C)=CCC/C(C)=C/C=O [Citral] | – | 0.23 | – |
| CC(C)=CCCC(C)CC=O (stereo not drawn) [Citronellal] | 2.597 | – | – |
| CC(C)c1ccc(C=O)cc1 [Cuminaldehyde] | 0.977 | – | – |
| C/C=C/C(=O)C1C(C)C=CCC1(C)C (stereo not drawn) [Delta-damascone] | 1.228 | – | – |
| O=CCCC=C1CC2CC1C1CCCC21 (stereo not drawn) [Dupical] | 0.932 | – | – |
| O=Cc1ccc2c(c1)OCO2 [Heliotropin] | – | 1.65 | – |
| CCCCCC=O [Hexanal] | 0.222 | – | – |
| CCCCCCC(C=O)=Cc1ccccc1 [Hexylcinnamicaldehyde] | 1.480 | – | – |
| CC1(C)CCc2ccc(CCC=O)cc21 [Hivernal] | – | 0.17 | – |
| CC(=O)/C(C)=C(/C)C(C)C(C)(C)C (stereo not drawn) [Koavone] | – | 1.17 | GC-MS head space peak area ratio normalized to Control ([1]; listed as Kaovone): 1.185 and 1.159 and 1.171 |
| CCCCCCCCCCCC=O [Lauric Aldehyde] | 0.169 | – | – |
| O=CC1CCC2C3CCC(C3)C12 (stereo not drawn) [Melozone] | – | 0.28 | – |
| CCCCCCCCCC(C)C=O (stereo not drawn) [Methyl Nonyl Acetaldehyde] | 0.772 | – | – |
| CCCCCCCCC(C)C=O (stereo not drawn) [Methyl Octyl acetaldehyde] | 0.836 | – | – |
| CC(C)=CCC/C(C)=C\C=O [Neral] | 0.261 | – | – |
| CCCCCCCCC=O [Nonaldehyde] | 0.209 | 0.21 | – |
| CC(C)CCCC(C)CC=O (stereo not drawn) [Tetrahydrogeranial] | 0.415 | 0.42 | – |
| CCC/C=C/C=O [Trans-2-hexenal] | 0.226 | – | – |
| CCCCCCCCCCC=CC=O [Tridecenal] | 0.470 | – | – |
| COc1ccc(C=O)cc1 [p-Anisaldehyde] | 1.521 | 1.52 | – |
| hydroxypropyl modified beta cyclodextrin | – | – | water solubility (benchmark) [2]: ≥ 60 g/100 ml |
